Reference: patent US20180298010A1, “PRMT5 INHIBITORS AND USES THEREOF” (Epizyme, Inc., priority 2012, published 2018)
pIC50: −log10 of the molar value.

Molecular target: T1, PRMT5/MEP50 (Homo sapiens, UniProt O14744)
T1 construct: Flag-PRMT5; 6His-MEP50
Assay: PRMT5 Biochemical Assay (PRMT5/MEP50 enzyme assay on peptide substrate, 3H-SAM Flashplate)
Description: General Materials. S-adenosylmethionine (SAM), S-adenosylhomocysteine (SAH), bicine, KCl, Tween20, dimethylsulfoxide (DMSO), bovine skin gelatin (BSG), and Tris(2-carboxyethyl)phosphine hydrochloride solution (TCEP) were purchased from Sigma-Aldrich at the highest level of purity possible. ^3H-SAM was purchase from American Radiolabeled Chemicals with a specific activity of 80 Ci/mmol. 384-well streptavidin Flashplates were purchased from PerkinElmer.
Substrates. Peptide representative of human histone H4 residues 1-15 was synthesized with a C-terminal linker-affinity tag motif and a C-terminal amide cap by 21st Century Biochemicals. The peptide was high high-perfomance liquid chromatography (HPLC) purified to greater than 95% purity and confirmed by liquid chromatography mass spectrometry (LC-MS). The sequence was Ac-[…][K-Biot]-amide (SEQ ID NO.:3).
Molecular Biology: Full-length human PRMT5 (NM_006109.3) transcript variant 1 clone was amplified from a fetal brain cDNA library, incorporating flanking 5′ sequence encoding a FLAG tag ([…]) (SEQ ID NO.:4) fused directly to Ala 2 of PRMT5. Full-length human MEP50 (NM_024102) clone was amplified from a human testis cDNA library incorporating a 5′ sequence encoding a 6-histidine tag (MHHHHHH) (SEQ ID NO.:5) fused directly to Arg 2 of MEP50. The amplified genes were sublconed into pENTR/D/TEV (Life Technologies) and subsequently transferred by Gateway™ attL×attR recombination to pDEST8 baculvirus expression vector (Life Technologies).
Protein Expression. Recombinant baculovirus and Baculovirus-Infected Insect Cells (BIIC) were generated according to Bac-to-Bac kit instructions (Life Technologies) and Wasilko, 2006, respectively. Protein over-expression was accomplished by infecting exponentially growing Spodoptera frugiperda (SF9) cell culture at 1.2×10^6cell/ml with a 5000 fold dilution of BIIC stock. Infections were carried out at 27° C. for 72 hours, harvested by centrifugation, and stored at −80° C. for purification.
Protein Purification. […] Flag-PRMT5/6His-MeP50 was eluted with 300 mM Imidazole in the same buffer. The purity of recovered protein was 87%. Reference: Wasilko, D. J. and S. E. Lee: “TIPS: titerless infected-cells preservation and scale-up” Bioprocess J., 5 (2006), pp. 29-32.
General Procedure for PRMT5/MEP50 Enzyme Assays on Peptide Substrates. The assays were all performed in a buffer consisting of 20 mM Bicine (pH=7.6), 1 mM TCEP, 0.005% BSG, and 0.002% Tween20, prepared on the day of use. Compounds in 100% DMSO (1 ul) were spotted into a polypropylene 384-well V-bottom plates (Greiner) using a Platemate Plus outfitted with a 384-channel head (Thermo Scientific). DMSO (1 ul) was added to Columns 11, 12, 23, 24, rows A-H for the maximum signal control and 1 ul of SAH, a known product and inhibitor of PRMT5/MEP50, was added to columns 11, 12, 23, 24, rows I-P for the minimum signal control. A cocktail (40 ul) containing the PRMT5/MEP50 enzyme and the peptide was added by Multidrop Combi (Thermo-Fisher). The compounds were allowed to incubate with PRMT5/MEP50 for 30 min at 25 degrees Celsius, then a cocktail (10 ul) containing ^3H-SAM was added to initiate the reaction (final volume=51 ul). The final concentrations of the components were as follows: PRMT5/MEP50 was 4 nM, ^3H-SAM was 75 nM, peptide was 40 nM, SAH in the minimum signal control wells was 100 uM, and the DMSO concentration was […]. The assays were stopped by the addition of non-radioactive SAM (10 ul) to a final concentration of 600 uM, which dilutes the ^3H-SAM to a level where its incorporation into the peptide substrate is no longer detectable. 50 ul of the reaction in the 384-well polypropylene plate was then transferred to a 384-well Flashplate and the biotinylated peptides were allowed to bind to the streptavidin surface for at least 1 hour before being washed three times with 0.1% Tween20 in a Biotek ELx405 plate washer. […]

T1 sequence (O14744 with tags, fused parts or gaps): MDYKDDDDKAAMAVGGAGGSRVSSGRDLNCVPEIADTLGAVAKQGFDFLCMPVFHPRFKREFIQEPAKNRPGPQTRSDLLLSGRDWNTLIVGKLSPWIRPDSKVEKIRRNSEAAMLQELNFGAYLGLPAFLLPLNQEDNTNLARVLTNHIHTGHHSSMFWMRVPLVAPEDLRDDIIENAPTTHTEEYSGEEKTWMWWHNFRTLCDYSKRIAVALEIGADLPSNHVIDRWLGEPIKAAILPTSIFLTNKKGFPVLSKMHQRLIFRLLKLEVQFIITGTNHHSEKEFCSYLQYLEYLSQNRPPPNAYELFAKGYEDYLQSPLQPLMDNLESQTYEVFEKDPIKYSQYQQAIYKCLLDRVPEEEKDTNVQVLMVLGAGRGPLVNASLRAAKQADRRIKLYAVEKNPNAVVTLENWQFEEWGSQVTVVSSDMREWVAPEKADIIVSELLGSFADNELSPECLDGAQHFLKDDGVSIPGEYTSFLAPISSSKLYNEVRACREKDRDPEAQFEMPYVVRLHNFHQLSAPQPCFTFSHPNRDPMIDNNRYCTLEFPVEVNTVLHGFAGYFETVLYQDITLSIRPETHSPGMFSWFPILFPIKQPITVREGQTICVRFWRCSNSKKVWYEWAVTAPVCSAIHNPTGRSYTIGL
T1 sequence (Q9BQA1 with tags, fused parts or gaps partner): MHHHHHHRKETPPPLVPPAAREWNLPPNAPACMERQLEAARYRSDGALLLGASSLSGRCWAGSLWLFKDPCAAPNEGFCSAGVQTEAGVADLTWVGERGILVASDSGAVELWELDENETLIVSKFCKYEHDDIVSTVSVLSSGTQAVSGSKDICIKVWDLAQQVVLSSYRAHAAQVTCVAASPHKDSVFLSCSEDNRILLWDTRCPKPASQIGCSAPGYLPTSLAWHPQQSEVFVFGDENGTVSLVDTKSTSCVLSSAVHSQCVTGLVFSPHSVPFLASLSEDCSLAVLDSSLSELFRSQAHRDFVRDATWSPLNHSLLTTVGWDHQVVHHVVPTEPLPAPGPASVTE

| SMILES | pIC50 |
| --- | --- |
| OC(COc1cccc(-c2cc(Cl)cc(C(F)(F)F)c2)c1)CN1CCc2ccccc2C1 (stereo not shown) [Compound 128] | 5.00 to 6.00 |
| CS(=O)(=O)Nc1ccc(-c2cccc(OCC(O)CN3CCc4ccccc4C3)c2)cc1 (stereo not shown) [Compound 129] | 6.00 to 7.00 |
| CS(=O)(=O)c1cccc(-c2cccc(OCC(O)CN3CCc4ccccc4C3)c2)c1 (stereo not shown) [Compound 130] | 6.00 to 7.00 |
| CS(=O)(=O)c1ccccc1-c1cccc(OCC(O)CN2CCc3ccccc3C2)c1 (stereo not shown) [Compound 131] | 6.00 to 7.00 |
| OC(COc1cccc(-c2ccccc2C(F)(F)F)c1)CN1CCc2ccccc2C1 (stereo not shown) [Compound 132] | 6.00 to 7.00 |
| OC(COc1cccc(-c2ccc(C(F)(F)F)cc2)c1)CN1CCc2ccccc2C1 (stereo not shown) [Compound 133] | 5.00 to 6.00 |
| COc1ccc(Cl)cc1-c1cccc(OCC(O)CN2CCc3ccccc3C2)c1 (stereo not shown) [Compound 134, 1-((5′-chloro-2′-methoxy-[1,1′-biphenyl]-3-yl)oxy)-3-(3,4-dihydroisoquinolin-2(1H)-yl)propan-2-ol] | 6.00 to 7.00 |
| Cn1ncc2ccc(-c3cc(COCC(O)CN4CCc5ccccc5C4)on3)cc21 (stereo not shown) [Compound 136] | 6.00 to 7.00 |
| Cc1ccc(F)c(-c2cccc(OCC(O)CN3CCc4ccccc4C3)c2)c1 (stereo not shown) [Compound 138] | 6.00 to 7.00 |
| COc1cccc2c1CCN(CC(O)COc1cccc(-c3ccc4ncn(C)c4c3)c1)C2 (stereo not shown) [Compound 142] | 5.00 to 6.00 |
| CCOC(=O)CC1c2ccccc2CCN1CC(O)COc1cccc(-c2ccc3ncn(C)c3c2)c1 (stereo not shown) [Compound 144] | 5.00 to 6.00 |
| Cn1ccc2ccc(-c3cccc(OCC(O)CN4CCc5ccccc5C4)c3)cc21 (stereo not shown) [Compound 147] | 6.00 to 7.00 |
| O=C1NCc2ccc(-c3cccc(OCC(O)CN4CCc5ccccc5C4)c3)cc21 (stereo not shown) [Compound 148] | 6.00 to 7.00 |
| CC(C)(C)OCc1cccc(-c2cccc(OCC(O)CN3CCc4ccccc4C3)c2)c1 (stereo not shown) [Compound 150] | 6.00 to 7.00 |
| CN(C)c1ccc(-c2cccc(OCC(O)CN3CCc4ccccc4C3)c2)cc1 (stereo not shown) [Compound 151] | 6.00 to 7.00 |
| OC(COc1cccc(-c2ccccc2Oc2ccccc2)c1)CN1CCc2ccccc2C1 (stereo not shown) [Compound 167, 1-(3,4-dihydroisoquinolin-2(1H)-yl)-3-((2′-phenoxy-[1,1′-biphenyl]-3-yl)oxy)propan-2-ol] | 6.00 to 7.00 |

Second part, the compound after the results:

| pIC50 | SMILES |
| --- | --- |
| 6.00 to 7.00 | CC(=O)c1ccc(-c2cccc(OCC(O)CN3CCc4ccccc4C3)c2)cc1 (stereo not shown) [Compound 137] |
| 6.00 to 7.00 | OC(COc1cccc(-c2cccnc2F)c1)CN1CCc2ccccc2C1 (stereo not shown) [Compound 139] |
| 5.00 to 6.00 | OC(COc1cccc(-c2cncnc2)c1)CN1CCc2ccccc2C1 (stereo not shown) [Compound 140] |
| 6.00 to 7.00 | NC(=O)c1ccc(-c2cccc(OCC(O)CN3CCc4ccccc4C3)c2)cc1 (stereo not shown) [Compound 152] |
| 5.00 to 6.00 | COc1ncc(-c2cccc(OCC(O)CN3CCc4ccccc4C3)c2)cn1 (stereo not shown) [Compound 153] |
| 6.00 to 7.00 | OC(COc1cccc(-c2ccccc2F)c1)CN1CCc2ccccc2C1 (stereo not shown) [Compound 154] |
| 5.00 to 6.00 | OC(COc1cccc(-c2cnccn2)c1)CN1CCc2ccccc2C1 (stereo not shown) [Compound 155] |
| 6.00 to 7.00 | O=C1COc2ccc(-c3cccc(OCC(O)CN4CCc5ccccc5C4)c3)cc2N1 (stereo not shown) [Compound 156, 6-(3-(3-(3,4-dihydroisoquinolin-2(1H)-yl)-2-hydroxypropoxy)phenyl)-2H-benzo[b][1,4]oxazin-3(4H)-one] |
| 5.00 to 6.00 | O=C(Nc1cccc(OCC(O)CN2CCc3ccccc3C2)c1)c1cnco1 (stereo not shown) [Compound 158] |
| 5.00 to 6.00 | O=C(Nc1cccc(OCC(O)CN2CCc3ccccc3C2)c1)c1cocn1 (stereo not shown) [Compound 159] |
| 5.00 to 6.00 | Cn1nccc1C(=O)Nc1cccc(OCC(O)CN2CCc3ccccc3C2)c1 (stereo not shown) [Compound 160] |
| 5.00 to 6.00 | O=C(Nc1cccc(OCC(O)CN2CCc3ccccc3C2)c1)c1cncnc1 (stereo not shown) [Compound 161] |
| 5.00 to 6.00 | Cn1ccc(C(=O)Nc2cccc(OCC(O)CN3CCc4ccccc4C3)c2)n1 (stereo not shown) [Compound 162] |
| 5.00 to 6.00 | O=C(Nc1cccc(OCC(O)CN2CCc3ccccc3C2)c1)c1cccnn1 (stereo not shown) [Compound 164] |
| 5.00 to 6.00 | OC(COc1cccc(-c2ccc3cnoc3c2)c1)CN1CCc2ccccc2C1 (stereo not shown) [Compound 166] |
